Measurements taken from US10568950B1, “Peptides, combination of peptides and scaffolds for use in immunotherapeutic treatment of various cancers” (Immatics Biotechnologies GmbH, priority 2015, dated 2020).

Columns and labels:
[1] = test system: CD8+ T cells of healthy HLA-A*24+ donors; experiment: In vitro immunogenicity: priming of CD8+ T cells with aAPCs loaded with HLA-A*24/peptide complexes and anti-CD28, multimer staining; assay type: cell-based, human; settings: in vitro immunogenicity, HLA-A*24 peptides of Table 12B
Procedure: CD8+ T cells were primed using artificial APCs coated with anti-CD28 mAb and HLA-A*24 in complex with SEQ ID NO: 99 peptide (FIG. 5A, left panel), SEQ ID NO: 119 peptide (FIG. 5B, left panel), SEQ ID NO: 142 peptide (FIG. 5C, left panel) and SEQ ID NO: 174 peptide (FIG. 5D, left panel), respectively. After three cycles of stimulation, the detection of peptide-reactive cells was performed by 2D multimer staining with A*24/SEQ ID NO: 99 (A), A*24/SEQ ID NO: 119 (B), A*24/SEQ ID NO: 142 (C) or A*24/SEQ ID NO: 174 (D). Right panels (FIGS. 5A, 5B, 5C and 5D) show control staining of cells stimulated with irrelevant A*24/peptide complexes. Viable singlet cells were gated for CD8+ lymphocytes. Boolean gates helped excluding false-positive events detected with multimers specific for different peptides. Frequencies of specific multimer+ cells among CD8+ lymphocytes are indicated.
In order to obtain information regarding the immunogenicity of the TUMAPs of the present invention, the inventors performed investigations using an in vitro T-cell priming assay based on repeated stimulations of CD8+ T cells with artificial antigen presenting cells (aAPCs) loaded with peptide/MHC complexes and anti-CD28 antibody.
PBMCs and isolated CD8+ lymphocytes were incubated in T-cell medium (TCM) until use consisting of RPMI-Glutamax (Invitrogen, Karlsruhe, Germany) supplemented with 10% heat inactivated human AB serum (PAN-Biotech, Aidenbach, Germany), 100 U/ml Penicillin/100 μg/ml Streptomycin (Cambrex, Cologne, Germany), 1 mM sodium pyruvate (CC Pro, Oberdorla, Germany), 20 μg/ml Gentamycin (Cambrex). 2.5 ng/ml IL-7 (PromoCell, Heidelberg, Germany) and 10 U/ml IL-2 (Novartis Pharma, Nurnberg, Germany) were also added to the TCM at this step.
Generation of pMHC/anti-CD28 coated beads, T-cell stimulations and readout was performed in a highly defined in vitro system using four different pMHC molecules per stimulation condition and 8 different pMHC molecules per readout condition.
The purified co-stimulatory mouse IgG2a anti human CD28 Ab 9.3 (Jung et al., 1987) was chemically biotinylated using Sulfo-N-hydroxysuccinimidobiotin as recommended by the manufacturer (Perbio, Bonn, Germany). Beads used were 5.6 μm diameter streptavidin coated polystyrene particles (Bangs Laboratories, Illinois, USA).
800.000 beads/200 μl were coated in 96-well plates in the presence of 4×12.5 ng different biotin-pMHC, washed and 600 ng biotin anti-CD28 were added subsequently in a volume of 200 μl. Stimulations were initiated in 96-well plates by co-incubating […] CD8+ T cells with 2×10^5 washed coated beads in 200 μl TCM supplemented with 5 ng/ml IL-12 (PromoCell) for 3 days at 37° C. Half of the medium was then exchanged by fresh TCM supplemented with 80 U/ml IL-2 and incubating was continued for 4 days at 37° C. This stimulation cycle was performed for a total of three times. For the pMHC multimer readout using 8 different pMHC molecules per condition, a two-dimensional combinatorial coding approach was used as previously described (Andersen et al., 2012) with minor modifications encompassing coupling to 5 different fluorochromes. Finally, multimeric analyses were performed by staining the cells with Live/dead near IR dye (Invitrogen, Karlsruhe, Germany), CD8-FITC antibody clone SKI (BD, Heidelberg, Germany) and fluorescent pMHC multimers. For analysis, a BD LSRII SORP cytometer equipped with appropriate lasers and filters was used. Peptide specific cells were calculated as percentage of total CD8+ cells. Evaluation of multimeric analysis was done using the FlowJo software (Tree Star, Oreg., USA). In vitro priming of specific multimer+ CD8+ lymphocytes was detected by comparing to negative control stimulations.

[2] = test system: HLA-A*24; experiment: MHC binding assay: UV-ligand exchange, beta2m ELISA (peptide exchange yield); parameters: species or system human; settings: binding to HLA-A*24, β2m ELISA
Text: Candidate peptides for T cell based therapies according to the present invention were further tested for their MHC binding capacity (affinity). The individual peptide-MHC complexes were produced by UV-ligand exchange, where a UV-sensitive peptide is cleaved upon UV-irradiation, and exchanged with the peptide of interest as analyzed. Only peptide candidates that can effectively bind and stabilize the peptide-receptive MHC molecules prevent dissociation of the MHC complexes. To determine the yield of the exchange reaction, an ELISA was performed based on the detection of the light chain (β2m) of stabilized MHC complexes. The assay was performed as generally described in Rodenko et al. (Rodenko et al., 2006).
96 well MAXISorp plates (NUNC) were coated over night with 2 ug/ml streptavidin in PBS at room temperature, washed 4× and blocked for 1 h at 37° C. in 2% BSA containing blocking buffer. […] Peptide-MHC monomers of the UV-exchange reaction were diluted 100 fold in blocking buffer. Samples were incubated for 1 h at 37° C., washed four times, incubated with 2 ug/ml HRP conjugated anti-βm for 1 h at 37° C., washed again and detected with TMB solution that is stopped with […]. Absorption was measured at 450 nm. Candidate peptides that show a high exchange yield (preferably higher than 50%, most preferred higher than 75%) are generally preferred for a generation and production of antibodies or fragments thereof, and/or T cell receptors or fragments thereof, as they show sufficient avidity to the MHC molecules and prevent dissociation of the MHC complexes.

Row | Substance | Wells positive [%] [1] | Peptide exchange (MHC class I binding score, peptide exchange yield) [2]
1 | 98 (VFPRLHNVLF; listed as Homo sapiens) [compound 98] | + (<20% = +) | 
2 | 102 (VYPFENFEF; listed as Homo sapiens) [compound 102] | +++ (50%-69% = +++) | 
3 | 103 (NYIPVKNGKQF; listed as Homo sapiens) [compound 103] | + (<20% = +) | 
4 | 105 (IYNETITDLL; listed as Homo sapiens) [compound 105] | + (<20% = +) | 
5 | 106 (IYNETVRDLL; listed as Homo sapiens) [compound 106] | + (<20% = +) | 
6 | 107 (KYFPYLVVI; listed as Homo sapiens) [compound 107] | ++ (20%-49% = ++) | 
7 | 110 (SYPKIIEEF; listed as Homo sapiens) [compound 110] | ++ (20%-49% = ++) | 
8 | 111 (VYVQILQKL; listed as Homo sapiens) [compound 111] | + (<20% = +) | 
9 | 112 (IYNFVESKL; listed as Homo sapiens) [compound 112] | +++ (50%-69% = +++) | 
10 | 115 (RYLNKSFVL; listed as Homo sapiens) [compound 115] | + (<20% = +) | 
11 | 119 (VYRVYVTTF; listed as Homo sapiens) [compound 119] | +++ (50%-69% = +++) | 
12 | 122 (EYQARIPEF; listed as Homo sapiens) [compound 122] | ++ (20%-49% = ++) | 
13 | 139 (IFGIFPNQF; listed as Homo sapiens) [compound 139] | ++ (20%-49% = ++) | 
14 | 142 (VYVDDIYVI; listed as Homo sapiens) [compound 142] | ++++ (>= 70 % = ++++) | 
15 | 157 (DYIPASGFALF; listed as Homo sapiens) [compound 157] | + (<20% = +) | 
16 | 158 (IYEETRGVLKVF; listed as Homo sapiens) [compound 158] | + (<20% = +) | 
17 | 160 (RYGDGGSSF; listed as Homo sapiens) [compound 160] | + (<20% = +) | 
18 | 161 (KYPDIVQQF; listed as Homo sapiens) [compound 161] | + (<20% = +) | 
19 | 162 (KYTSYILAF; listed as Homo sapiens) [compound 162] | + (<20% = +) | 
20 | 164 (HYVPATKVF; listed as Homo sapiens) [compound 164] | + (<20% = +) | 
21 | 167 (RYGFYYVEF; listed as Homo sapiens) [compound 167] | ++++ (>= 70 % = ++++) | 
22 | 168 (RYLEAALRL; listed as Homo sapiens) [compound 168] | +++ (50%-69% = +++) | 
23 | 171 (NYEDHFPLL; listed as Homo sapiens) [compound 171] | ++ (20%-49% = ++) | 

Row | Substance | Wells positive [%] [1] | Peptide exchange (MHC class I binding score, peptide exchange yield) [2]
24 | 174 (VYEKNGYIYF; listed as Homo sapiens) [compound 174] | ++++ (>= 70 % = ++++) | 
25 | 175 (LYSPVPFTL; listed as Homo sapiens) [compound 175] | + (<20% = +) | 
26 | 177 (VYFKAGLDVF; listed as Homo sapiens) [compound 177] | + (<20% = +) | 
27 | 179 (TYIPVGLGRLL; listed as Homo sapiens) [compound 179] | +++ (50%-69% = +++) | 
28 | 180 (KYLQVVGMF; listed as Homo sapiens) [compound 180] | + (<20% = +) | 
29 | 181 (VYPPYLNYL; listed as Homo sapiens) [compound 181] | ++++ (>= 70 % = ++++) | 
30 | 190 (LYSELTETL; listed as Homo sapiens) [compound 190] | ++++ (>= 70 % = ++++) | 
31 | 277 (FYTFPFQQL; listed as Homo sapiens) [compound 277] | +++ (50%-69% = +++) | 
32 | 289 (FFHEGQYVF; listed as Homo sapiens) [compound 289] |  | ++++ (>= 75% = ++++)
33 | 290 (KYGDFKLLEF; listed as Homo sapiens) [compound 290] |  | ++++ (>= 75% = ++++)
34 | 292 (FYPQIINTF; listed as Homo sapiens) [compound 292] |  | ++++ (>= 75% = ++++)
35 | 293 (VYPHFSTTNLI; listed as Homo sapiens) [compound 293] |  | ++++ (>= 75% = ++++)
36 | 296 (SYQVIFQHF; listed as Homo sapiens) [compound 296] |  | ++++ (>= 75% = ++++)
37 | 297 (TYIDTRTVF; listed as Homo sapiens) [compound 297] |  | ++++ (>= 75% = ++++)
38 | 298 (AYKSEVVYF; listed as Homo sapiens) [compound 298] |  | ++++ (>= 75% = ++++)
39 | 301 (KFDDVTMLF; listed as Homo sapiens) [compound 301] |  | ++++ (>= 75% = ++++)
40 | 305 (NYENKQYLF; listed as Homo sapiens) [compound 305] |  | ++++ (>= 75% = ++++)
41 | 311 (EYLQNLNHI; listed as Homo sapiens) [compound 311] |  | ++++ (>= 75% = ++++)
42 | 313 (KYTHFIQSF; listed as Homo sapiens) [compound 313] |  | ++++ (>= 75% = ++++)
43 | 319 (KYSDVKNLI; listed as Homo sapiens) [compound 319] |  | ++++ (>= 75% = ++++)
44 | 357 (QFITSTNTF; listed as Homo sapiens) [compound 357] |  | ++++ (>= 75% = ++++)
45 | 379 (VFIAQGYTL; listed as Homo sapiens) [compound 379] |  | ++++ (>= 75% = ++++)
